Data: PubChem BioAssay (NCI)
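Protocol summary: plate cells (96-well), add compound at 5 concentrations, incubate 48 h, interpolate endpoints linearly. GI50 marks 50% less growth. Definition used: TGI = concentration required for complete inhibition of growth.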

Columns and labels:
Assay in all cases: NCI anticancer screen, dose series, 48 h
[1] = test system: 786-0 renal
[2] = test system: A549 NSCLC
[3] = test system: CAKI-1 renal
[4] = test system: IGROV1 ovarian
[5] = test system: MALME-3M melanoma
[6] = test system: MCF7 breast
[7] = test system: OVCAR-3 ovarian
[8] = test system: OVCAR-4 ovarian
[9] = test system: SK-MEL-2 melanoma
[10] = test system: SK-MEL-28 melanoma

Compound	GI50 [1] [µM]	TGI [1] [µM]	GI50 [2] [µM]	TGI [2] [µM]	GI50 [3] [µM]	TGI [3] [µM]	GI50 [4] [µM]	TGI [4] [µM]	GI50 [5] [µM]	TGI [5] [µM]	GI50 [6] [µM]	TGI [6] [µM]	GI50 [7] [µM]	TGI [7] [µM]	GI50 [8] [µM]	TGI [8] [µM]	GI50 [9] [µM]	TGI [9] [µM]	GI50 [10] [µM]	TGI [10] [µM]
O=c1[nH]c2ccccc2n1-c1n[nH]c2ccccc12	46.6	> 100	30.8	> 100	25.3	> 100	8.29	> 100	26.3	82.9	20.1	> 100	27.5	> 100	41.3	> 100	29.3	> 100	38.8	> 100
CC(C)C(=O)Oc1cc2c(=O)oc3c(OC(=O)C(C)C)c(OC(=O)C(C)C)cc4c(=O)oc(c1OC(=O)C(C)C)c2c34	–	> 100	–	> 100	–	> 100	–	> 100	–	> 100	–	> 100	–	> 100	–	> 100	–	–	–	> 100
O=C(Cc1ccccc1)NN1C(=O)/C(=C\c2ccc(O)cc2)SC1=Nc1ccccc1	–	> 100	–	> 100	–	–	–	> 100	–	–	–	> 100	–	> 100	–	> 100	–	> 100	–	> 100
O=C(Nc1ccccc1C(=O)N/N=C(\c1ccccc1)c1ccccn1)c1ccc(F)cc1	0.281	8.44	0.451	> 100	0.42	> 100	0.198	> 100	0.767	> 100	0.308	> 100	0.211	> 100	0.207	> 100	7.01	> 100	0.536	> 100
CC(=O)Oc1ccc(/C=N/NC(N)=S)nc1	3.53	16.1	29.5	> 100	–	–	4.5	26.8	4.96	43.5	2.13	> 100	2.72	> 100	6.03	> 100	77	> 100	25.5	> 100
Oc1ccc(Cl)cc1Cc1cc(Cl)ccc1O	3.85	14.3	2.95	11.1	2.8	9.38	3.34	12.5	2.55	6.35	2.97	10.2	2.63	8.35	2.84	11.9	2.21	5.02	3.52	12.6
Cc1cc(Cl)ccc1NS(=O)(=O)c1ccc(-c2cnc(C3CC3)o2)cc1	0.561	17.5	0.372	17	0.127	17.6	0.365	15.5	0.567	26.7	0.0619	14.7	0.186	5.41	2.98	20.6	0.677	22	4.9	22.8
N#CC1C=Cc2ccccc2N1C(=O)Oc1ccccc1 (stereo unspecified)	–	> 100	–	> 100	–	> 100	–	> 100	–	> 100	–	> 100	–	–	–	> 100	–	64.3	–	> 100
COc1cc(/C=C(\C#N)C(N)=C(C#N)C#N)cc(O)c1O	–	> 100	–	> 100	–	> 100	–	> 100	–	> 100	–	> 100	–	> 100	–	> 100	–	> 100	–	> 100
COc1cnc2cc(C(=O)O)c3ccccc3c2c1	–	> 100	–	> 100	–	> 100	–	> 100	–	> 100	–	> 100	–	> 100	–	> 100	–	> 100	–	> 100
COc1cccc(/C=C/C(=O)c2cc3c(N)c(C(=O)Nc4cccc5ccccc45)sc3nc2C)c1	0.851	1.85	1.46	> 50	1.6	6.34	1.05	2.78	1.96	> 50	0.339	> 50	0.892	2.07	2.65	> 50	1.71	> 50	–	–
COc1ccc(CCN2CCc3c(C)c(C#N)c4nc5ccccc5n4c32)cc1OC	–	> 100	–	> 100	–	> 100	–	> 100	–	99.8	–	> 100	–	> 100	–	> 100	–	44.7	–	> 100
Cc1ccc(C(C)C)cc1NC(=O)Nc1ccc([N+](=O)[O-])cc1	2.32	5.29	2.63	11.1	2.1	5.62	1.38	4.79	2.02	6.48	1.95	5.72	1.77	6.28	3.44	13	–	–	2.78	10.4
CC1COCC(C)N1C1=C(Cl)C(=O)c2ccccc2C1=O (stereo unspecified)	3.67	13.5	17	32.2	1.56	2.97	–	–	1.5	2.97	1.67	3.76	1.56	2.92	1.61	3.03	–	–	14.2	27.9
C=[CH][Sn]([CH]=C)([O]c1cccc2cccnc12)[O]c1cccc2cccnc12	3.31	9.29	3.37	13.9	6.73	22.8	3.31	11	3.35	10.3	3.11	12.6	2.53	10	1.38	4.37	1.72	7.87	4.03	10.5
